From ChEMBL document CHEMBL4257529, “Antifungal amphiphilic kanamycins: new life for an old drug” (Medchemcomm, 2018)
≈ marks a conversion by molar mass, not a printed value.

Columns and labels:
Fusarium graminearum [1] = assay: Antifungal activity against Fusarium graminearum by microbroth dilution assay; format: functional
Candida albicans [2] = assay: Antifungal activity against resistant Candida albicans ATCC 64124; format: functional
Cryptococcus neoformans [3] = assay: Antifungal activity against Cryptococcus neoformans 94-2586; format: functional
Diutina rugosa = assay: Antifungal activity against Candida rugosa 95-967; format: functional
Fusarium graminearum [4] = assay: Antifungal activity against Fusarium graminearum B4-5A strain C after 48 hrs by microdilution assay; format: functional
Cryptococcus neoformans [5] = assay: Antifungal activity against Cryptococcus neoformans H99; format: functional; details: var grubii H99
Cryptococcus neoformans [6] = assay: Antifungal activity against Cryptococcus neoformans 90-26; format: functional
Candida parapsilosis [7] = assay: Antifungal activity against sensitive Candida parapsilosis; format: functional; details: Lodderomyces parapsilosis
Candida albicans [8] = assay: Antifungal activity against Candida albicans ATCC 10231; format: functional
Candida albicans [9] = assay: Antifungal activity against Candida albicans 94-2181; format: functional
Candida parapsilosis [10] = assay: Antifungal activity against resistant Candida parapsilosis; format: functional; details: Lodderomyces parapsilosis
Candida albicans [11] = assay: Antifungal activity against sensitive Candida albicans MYA-2876; format: functional
Clavispora lusitaniae = assay: Antifungal activity against Candida lusitaniae 95-767; format: functional
Candida tropicalis = assay: Antifungal activity against Candida tropicalis 95-41; format: functional
Fusarium graminearum [12] = assay: Antifungal activity against Fusarium graminearum B4-5A strain E after 48 hrs by microdilution assay; format: functional
Fusarium graminearum [13] = assay: Antifungal activity against Fusarium graminearum B4-5A strain D after 48 hrs by microdilution assay; format: functional
Fusarium graminearum [14] = assay: Antifungal activity against Fusarium graminearum B4-5A strain B after 48 hrs by microdilution assay; format: functional
Candida albicans [15] = assay: Antifungal activity against Candida albicans B-311; format: functional
Fusarium graminearum [16] = assay: Antifungal activity against Fusarium graminearum B4-5A strain A after 48 hrs by microdilution assay; format: functional
[17] = Hemolytic activity in sheep RBC relative to control; format: ADME, cell-based, Ovis aries, Erythrocyte; details: sheep red blood cells (erythrocytes), read-out: Activity
Pseudomonas aeruginosa = assay: Antibacterial activity against Pseudomonas aeruginosa ATCC 27853 by microbroth dilution assay; format: functional
Saccharomyces cerevisiae = assay: Antifungal activity against Saccharomyces cerevisiae W303 by microbroth dilution assay; format: functional
Enterococcus faecalis = assay: Antibacterial activity against Enterococcus faecalis ATCC 29212 by microbroth dilution assay; format: functional
Staphylococcus aureus [18] = assay: Antibacterial activity against Staphylococcus aureus ATCC 25923 by microbroth dilution assay; format: functional
[19] = system: Globisporangium irregulare; assay: Antifungal activity against Pythium irregulare by microbroth dilution assay; format: functional
Curvularia brachyspora = assay: Antifungal activity against Curvularia brachyspora by microbroth dilution assay; format: functional
Fusarium oxysporum = assay: Antifungal activity against Fusarium oxysporum by microbroth dilution assay; format: functional
Klebsiella pneumoniae [20] = assay: Antibacterial activity against Klebsiella pneumoniae […] by microbroth dilution assay; format: functional
Rhodotorula mucilaginosa = assay: Antifungal activity against Rhodotorula pilimanae by microbroth dilution assay; format: functional
Candida albicans [21] = assay: Antifungal activity against Candida albicans by microbroth dilution assay; format: functional
Escherichia coli [22] = assay: Antibacterial activity against Escherichia coli TG1 by microbroth dilution assay; format: functional
Rhizopus stolonifer = assay: Antifungal activity against Rhizopus stolonifer by microbroth dilution assay; format: functional
Phoma = assay: Antifungal activity against Phoma spp. by microbroth dilution assay; format: functional
Klebsiella pneumoniae [23] = assay: Antibacterial activity against Klebsiella pneumoniae ATCC 700603 by microbroth dilution assay; format: functional
Botrytis cinerea = assay: Antifungal activity against Bortrytis cinerea by microbroth dilution assay; format: functional
Phytophthora nicotianae = assay: Antifungal activity against Phytophthora parasitica by microbroth dilution assay; format: functional
Globisporangium ultimum = assay: Antifungal activity against Pythium ultimum by microbroth dilution assay; format: functional
[24] = system: Cladosporium cladosporioides; assay: Antifungal activity against Cladosporium cladosporioides by microbroth dilution assay; format: functional
Ulocladium = assay: Antifungal activity against Ulocladium spp. by microbroth dilution assay; format: functional; details: Alternaria sect. Ulocladium
Aspergillus flavus [25] = assay: Antifungal activity against Aspergillus flavus after 12 to 18 hrs; format: functional
Escherichia coli [26] = assay: Antibacterial activity against Escherichia coli ATCC 25922 after 12 to 18 hrs; format: functional
Fusarium graminearum [27] = assay: Antifungal activity against Fusarium graminearum after 12 to 18 hrs; format: functional
Staphylococcus aureus [28] = assay: Antibacterial activity against Staphylococcus aureus ATCC 25923 after 12 to 18 hrs; format: functional
Kluyveromyces marxianus = assay: Antifungal activity against Candida pseudotropicalis YOGI; format: functional
Aspergillus flavus [29] = assay: Antifungal activity against Aspergillus flavus; format: functional

SMILES | MIC (Fusarium graminearum [1]) | MIC (Candida albicans [2]) | MIC (Cryptococcus neoformans [3]) | MIC (Diutina rugosa) | MIC (Cryptococcus neoformans [5]) | MIC (Cryptococcus neoformans [6]) | MIC (Candida parapsilosis [7]) | MIC (Candida albicans [8]) | MIC (Candida albicans [9]) | MIC (Candida parapsilosis [10]) | MIC (Candida albicans [11]) | MIC (Clavispora lusitaniae) | MIC (Candida tropicalis) | MIC (Candida albicans [15]) | MIC (Aspergillus flavus [25]) | MIC (Escherichia coli [26]) | MIC (Fusarium graminearum [27]) | MIC (Staphylococcus aureus [28]) | further results
CCCCCCCCO[C@@H]1[C@@H](O)[C@H](O)[C@H](O[C@H]2[C@H](O)[C@@H](O[C@@H]3O[C@@H](CN)[C@H](O)[C@@H](O)[C@@H]3N)[C@H](N)C[C@@H]2N)O[C@H]1CO (single isomer, unassigned) | 7.8 µg/mL (≈ 13.1 µM) |  |  |  |  |  |  |  |  |  |  |  |  |  |  |  |  |  | 
OC(Cn1cncn1)(Cn1cncn1)c1ccc(F)cc1F [FLUCONAZOLE] |  | > 200 µg/mL | 1.56 µg/mL (≈ 5.09 µM) | > 0.78 µg/mL | 1.56 µg/mL (≈ 5.09 µM) | > 0.195 µg/mL | 0.12 µg/mL (≈ 0.392 µM) | 25 µg/mL (≈ 81.6 µM) | > 12.5 µg/mL | > 16 µg/mL | 1.56 µg/mL (≈ 5.09 µM) | 1.56 µg/mL (≈ 5.09 µM) | > 25 µg/mL | > 25 µg/mL |  |  |  |  | MIC (Fusarium graminearum [4]): > 2 µg/mL; MIC (Fusarium graminearum [12]): > 25 µg/mL; MIC (Fusarium graminearum [13]): > 12.5 µg/mL; MIC (Fusarium graminearum [14]): > 25 µg/mL; MIC (Fusarium graminearum [16]): > 200 µg/mL
CCCCCCCCO[C@H]1[C@H](O)[C@@H](O)[C@@H](O[C@@H]2[C@@H](O)[C@H](O[C@H]3O[C@H](CN)[C@@H](O)[C@H](O)[C@H]3N)[C@@H](N)C[C@H]2N)O[C@@H]1C | 7.8 µg/mL (≈ 13.4 µM) |  |  |  |  |  |  |  |  |  |  |  |  |  |  |  |  |  | hemolysis [17]: < 20%; MIC (Pseudomonas aeruginosa): 250 µg/mL (≈ 431 µM); MIC (Saccharomyces cerevisiae): 31.3 µg/mL (≈ 53.9 µM); MIC (Enterococcus faecalis): 125 to 250 µg/mL (≈ 215 to 431 µM); MIC (Staphylococcus aureus [18]): 250 µg/mL (≈ 431 µM); MIC [19]: 15.6 µg/mL (≈ 26.9 µM); MIC (Curvularia brachyspora): 31.3 µg/mL (≈ 53.9 µM); MIC (Fusarium oxysporum): 7.8 µg/mL (≈ 13.4 µM); MIC (Klebsiella pneumoniae [20]): 250 µg/mL (≈ 431 µM); MIC (Rhodotorula mucilaginosa): 7.8 µg/mL (≈ 13.4 µM); MIC (Candida albicans [21]): 31.3 µg/mL (≈ 53.9 µM); MIC (Escherichia coli [22]): 125 to 250 µg/mL (≈ 215 to 431 µM); MIC (Rhizopus stolonifer): 31.3 µg/mL (≈ 53.9 µM); MIC (Phoma): 31.3 µg/mL (≈ 53.9 µM); MIC (Klebsiella pneumoniae [23]): 250 µg/mL (≈ 431 µM); MIC (Botrytis cinerea): 31.3 µg/mL (≈ 53.9 µM); MIC (Phytophthora nicotianae): 15.6 µg/mL (≈ 26.9 µM); MIC (Globisporangium ultimum): 15.6 µg/mL (≈ 26.9 µM); MIC [24]: 31.3 µg/mL (≈ 53.9 µM); MIC (Ulocladium): 7.8 µg/mL (≈ 13.4 µM)
CCCCCCCCOC[C@H]1O[C@H](O[C@@H]2[C@@H](O)[C@H](O[C@H]3O[C@H](CN)[C@@H](O)[C@H](O)[C@H]3O)[C@@H](N)C[C@H]2N)[C@H](O)[C@@H](N)[C@@H]1OCCCCCCCC |  |  |  |  |  |  |  |  |  |  |  |  |  |  | > 500 µg/mL | ≥ 250 µg/mL | 31.3 µg/mL (≈ 44.2 µM) | ≥ 250 µg/mL | 
CCCCCCO[C@H]1[C@H](N)[C@@H](O)[C@@H](O[C@@H]2[C@@H](O)[C@H](O[C@H]3O[C@H](CN)[C@@H](O)[C@H](O)[C@H]3O)[C@@H](N)C[C@H]2N)O[C@@H]1CO |  |  |  |  |  |  |  |  |  |  |  |  |  |  | > 500 µg/mL | ≥ 250 µg/mL | 31.3 µg/mL (≈ 55 µM) | 64 µg/mL (≈ 113 µM) | 
CCC(C)n1ncn(-c2ccc(N3CCN(c4ccc(OCC5COC(Cn6cncn6)(c6ccc(Cl)cc6Cl)O5)cc4)CC3)cc2)c1=O (stereo not drawn) [ITRACONAZOLE] |  | > 64 µg/mL | 0.06 µg/mL (≈ 0.085 µM) | 0.12 µg/mL (≈ 0.17 µM) | 1.56 µg/mL (≈ 2.21 µM) | 0.37 µg/mL (≈ 0.524 µM) | 0.015 µg/mL (≈ 0.0213 µM) | 0.75 µg/mL (≈ 1.06 µM) | 8 to 16 µg/mL (≈ 11.3 to 22.7 µM) | 0.5 µg/mL (≈ 0.709 µM) | > 2 µg/mL | 0.2 µg/mL (≈ 0.283 µM) | > 25 µg/mL | 16 to 32 µg/mL (≈ 22.7 to 45.3 µM) |  |  |  |  | MIC (Kluyveromyces marxianus): 0.125 to 0.8 µg/mL (≈ 0.177 to 1.13 µM); MIC (Aspergillus flavus [29]): 0.125 µg/mL (≈ 0.177 µM)
